Test results from ChEMBL document CHEMBL5465560, “Selectivity Literature for EUbOPEN Chemogenomic Library” (2024).

Experiments:
[1] = biological target: T1, Mitogen-activated protein kinase kinase kinase kinase 3 (Homo sapiens) (UniProt Q8IVH8); experiment: Selectivity interaction (KinomeScan (DiscoverX)) EUB0000045b MAP4K3
T1 sequence (whole entry): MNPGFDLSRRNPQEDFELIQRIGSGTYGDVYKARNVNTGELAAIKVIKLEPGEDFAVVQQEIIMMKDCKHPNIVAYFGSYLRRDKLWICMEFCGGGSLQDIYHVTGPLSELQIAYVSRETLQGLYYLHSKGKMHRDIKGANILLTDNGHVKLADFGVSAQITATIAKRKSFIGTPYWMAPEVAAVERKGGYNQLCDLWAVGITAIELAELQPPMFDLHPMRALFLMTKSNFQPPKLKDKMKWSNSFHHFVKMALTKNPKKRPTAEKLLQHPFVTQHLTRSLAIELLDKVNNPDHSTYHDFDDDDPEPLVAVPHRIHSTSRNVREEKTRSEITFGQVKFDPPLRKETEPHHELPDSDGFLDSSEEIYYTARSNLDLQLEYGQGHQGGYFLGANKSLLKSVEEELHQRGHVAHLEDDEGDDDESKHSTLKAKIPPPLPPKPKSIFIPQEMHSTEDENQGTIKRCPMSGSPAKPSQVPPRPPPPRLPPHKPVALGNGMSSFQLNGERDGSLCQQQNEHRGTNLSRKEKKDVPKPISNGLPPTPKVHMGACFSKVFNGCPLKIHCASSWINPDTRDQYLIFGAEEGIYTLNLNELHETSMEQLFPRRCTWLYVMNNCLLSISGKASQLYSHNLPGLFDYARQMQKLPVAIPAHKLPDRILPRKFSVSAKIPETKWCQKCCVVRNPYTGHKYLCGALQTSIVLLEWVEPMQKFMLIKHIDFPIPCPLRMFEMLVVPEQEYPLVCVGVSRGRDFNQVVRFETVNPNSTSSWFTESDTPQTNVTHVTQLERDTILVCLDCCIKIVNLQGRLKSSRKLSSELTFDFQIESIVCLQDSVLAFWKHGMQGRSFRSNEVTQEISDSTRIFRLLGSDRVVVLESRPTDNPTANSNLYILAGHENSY

[2] = biological target: Hepatocyte growth factor receptor (Homo sapiens, UniProt P08581); conditions: at 10 µM
[3] = biological target: Tyrosine-protein kinase Yes (Homo sapiens) (UniProt P07947); experiment: Selectivity interaction (Upstate Kinase Profiler service (Millipore)) EUB0000056c YES1; conditions: at 1 µM
[4] = biological target: T2, Phosphatidylinositol 5-phosphate 4-kinase type-2 gamma (Homo sapiens) (UniProt Q8TBX8); conditions: at 10 µM
T2 sequence (whole entry): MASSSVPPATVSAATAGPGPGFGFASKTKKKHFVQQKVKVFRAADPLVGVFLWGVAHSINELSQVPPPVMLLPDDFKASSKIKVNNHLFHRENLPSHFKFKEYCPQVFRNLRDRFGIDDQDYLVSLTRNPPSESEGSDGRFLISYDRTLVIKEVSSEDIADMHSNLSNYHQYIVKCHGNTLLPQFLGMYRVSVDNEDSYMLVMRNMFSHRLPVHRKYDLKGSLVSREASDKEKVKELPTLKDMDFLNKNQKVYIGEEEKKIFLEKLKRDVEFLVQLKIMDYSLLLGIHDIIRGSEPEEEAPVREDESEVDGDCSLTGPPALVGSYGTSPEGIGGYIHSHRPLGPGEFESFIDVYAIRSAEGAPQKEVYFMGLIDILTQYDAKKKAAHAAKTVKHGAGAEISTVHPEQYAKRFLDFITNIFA

[5] = biological target: Calcium/calmodulin-dependent protein kinase type II subunit alpha (Homo sapiens, UniProt Q9UQM7); experiment: Selectivity interaction (ActivX KiNativ screen (kinase selectivity in THP-1 cell lysates)) EUB0000639a CAMK2A; assay type: subcellular; conditions: lysate
[6] = biological target: T3, Mitogen-activated protein kinase kinase kinase 3 (Homo sapiens) (UniProt Q99759); experiment: Selectivity interaction (ActivX KiNativ screen (kinase selectivity in THP-1 cell lysates)) EUB0000639a MAP3K3; assay type: subcellular; conditions: lysate, at 0.2 µM
T3 sequence (whole entry): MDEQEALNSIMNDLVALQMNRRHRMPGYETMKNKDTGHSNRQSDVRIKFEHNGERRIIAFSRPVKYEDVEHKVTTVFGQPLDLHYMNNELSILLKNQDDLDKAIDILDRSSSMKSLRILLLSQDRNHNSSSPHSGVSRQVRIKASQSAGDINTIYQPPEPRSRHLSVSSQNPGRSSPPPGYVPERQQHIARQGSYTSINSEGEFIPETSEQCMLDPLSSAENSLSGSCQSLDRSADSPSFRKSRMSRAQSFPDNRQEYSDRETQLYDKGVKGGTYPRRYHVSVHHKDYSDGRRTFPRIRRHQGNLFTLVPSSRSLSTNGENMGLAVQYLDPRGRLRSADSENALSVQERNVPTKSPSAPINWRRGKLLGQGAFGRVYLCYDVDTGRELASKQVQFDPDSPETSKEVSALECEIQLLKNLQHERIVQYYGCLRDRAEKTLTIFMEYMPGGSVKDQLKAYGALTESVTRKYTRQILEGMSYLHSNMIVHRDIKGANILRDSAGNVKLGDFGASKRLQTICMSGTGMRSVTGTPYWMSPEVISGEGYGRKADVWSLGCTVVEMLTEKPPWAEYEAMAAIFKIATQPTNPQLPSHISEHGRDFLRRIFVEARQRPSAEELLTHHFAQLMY

[7] = biological target: Serine/threonine-protein kinase 32B (Homo sapiens) (UniProt Q9NY57); experiment: Selectivity interaction (KinomeScan (DiscoverX)) EUB0001049a STK32B; conditions: at 1 µM
[8] = biological target: T4, Calcium/calmodulin-dependent protein kinase type IV (Homo sapiens) (UniProt Q16566); experiment: Selectivity interaction (Kinase screening (Upstate/Millipore)) EUB0000604a CAMK4
T4 sequence (whole entry): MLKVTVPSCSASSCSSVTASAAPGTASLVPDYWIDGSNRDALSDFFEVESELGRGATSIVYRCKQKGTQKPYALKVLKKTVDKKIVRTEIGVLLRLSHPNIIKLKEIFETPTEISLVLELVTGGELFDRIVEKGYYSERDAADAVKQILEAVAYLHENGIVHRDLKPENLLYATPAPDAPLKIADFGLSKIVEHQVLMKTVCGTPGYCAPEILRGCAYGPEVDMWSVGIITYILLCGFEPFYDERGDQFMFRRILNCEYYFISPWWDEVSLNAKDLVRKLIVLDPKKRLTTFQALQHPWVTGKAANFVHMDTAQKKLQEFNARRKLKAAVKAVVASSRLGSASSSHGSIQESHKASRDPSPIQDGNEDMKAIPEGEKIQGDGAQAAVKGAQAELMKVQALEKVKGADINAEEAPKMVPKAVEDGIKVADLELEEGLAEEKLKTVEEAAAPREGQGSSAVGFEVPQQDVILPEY

Chain of Calcium/calmodulin-dependent protein kinase type II subunit alpha (Q9UQM7 whole entry): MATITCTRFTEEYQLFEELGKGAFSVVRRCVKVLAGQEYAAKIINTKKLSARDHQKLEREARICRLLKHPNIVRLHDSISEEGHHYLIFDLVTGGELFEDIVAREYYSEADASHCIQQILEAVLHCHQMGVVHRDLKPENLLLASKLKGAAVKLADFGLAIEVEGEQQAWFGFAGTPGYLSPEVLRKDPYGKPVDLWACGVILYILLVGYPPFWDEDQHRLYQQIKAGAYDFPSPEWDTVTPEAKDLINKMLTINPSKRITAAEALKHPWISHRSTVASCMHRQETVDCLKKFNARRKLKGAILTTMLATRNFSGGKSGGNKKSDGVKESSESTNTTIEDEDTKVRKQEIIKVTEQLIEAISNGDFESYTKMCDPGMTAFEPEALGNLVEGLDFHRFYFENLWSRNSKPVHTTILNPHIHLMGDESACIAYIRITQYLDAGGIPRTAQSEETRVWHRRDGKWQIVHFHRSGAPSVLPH
Chain of Hepatocyte growth factor receptor (P08581 whole entry): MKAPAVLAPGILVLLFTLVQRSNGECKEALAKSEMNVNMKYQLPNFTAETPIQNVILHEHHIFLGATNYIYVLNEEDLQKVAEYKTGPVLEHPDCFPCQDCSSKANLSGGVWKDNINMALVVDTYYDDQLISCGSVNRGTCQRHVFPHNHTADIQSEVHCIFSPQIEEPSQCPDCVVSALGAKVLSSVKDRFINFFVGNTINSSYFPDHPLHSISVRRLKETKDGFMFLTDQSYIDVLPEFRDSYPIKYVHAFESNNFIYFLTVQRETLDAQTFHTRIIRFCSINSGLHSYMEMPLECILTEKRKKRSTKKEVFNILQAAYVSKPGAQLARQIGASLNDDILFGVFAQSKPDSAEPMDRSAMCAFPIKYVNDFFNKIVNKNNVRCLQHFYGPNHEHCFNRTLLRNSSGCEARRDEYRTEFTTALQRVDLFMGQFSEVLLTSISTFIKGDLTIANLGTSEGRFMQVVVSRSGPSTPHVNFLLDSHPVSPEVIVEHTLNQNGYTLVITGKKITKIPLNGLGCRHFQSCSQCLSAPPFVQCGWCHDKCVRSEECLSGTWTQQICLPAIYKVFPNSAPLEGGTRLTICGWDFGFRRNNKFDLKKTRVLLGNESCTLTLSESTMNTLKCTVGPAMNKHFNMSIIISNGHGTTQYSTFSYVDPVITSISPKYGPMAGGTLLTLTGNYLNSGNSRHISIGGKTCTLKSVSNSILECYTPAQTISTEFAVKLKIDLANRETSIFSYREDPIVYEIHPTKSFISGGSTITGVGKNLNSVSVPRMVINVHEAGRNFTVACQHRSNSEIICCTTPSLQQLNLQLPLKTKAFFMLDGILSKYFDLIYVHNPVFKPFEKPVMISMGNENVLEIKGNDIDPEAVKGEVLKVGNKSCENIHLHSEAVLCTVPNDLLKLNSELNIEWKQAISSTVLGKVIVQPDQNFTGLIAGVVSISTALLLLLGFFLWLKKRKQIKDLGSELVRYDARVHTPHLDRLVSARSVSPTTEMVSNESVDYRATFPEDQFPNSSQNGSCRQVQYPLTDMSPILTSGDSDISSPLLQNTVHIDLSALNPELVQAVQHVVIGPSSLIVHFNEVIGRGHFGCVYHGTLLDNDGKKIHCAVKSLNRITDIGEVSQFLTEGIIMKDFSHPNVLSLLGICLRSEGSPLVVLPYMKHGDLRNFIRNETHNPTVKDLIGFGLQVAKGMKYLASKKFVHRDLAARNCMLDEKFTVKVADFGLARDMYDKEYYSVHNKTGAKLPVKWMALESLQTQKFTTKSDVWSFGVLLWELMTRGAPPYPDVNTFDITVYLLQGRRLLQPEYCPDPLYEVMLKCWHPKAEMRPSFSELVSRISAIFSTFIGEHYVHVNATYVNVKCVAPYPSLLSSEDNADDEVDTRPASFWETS
Chain of Tyrosine-protein kinase Yes (Homo sapiens) (P07947 2-543 limits assumed): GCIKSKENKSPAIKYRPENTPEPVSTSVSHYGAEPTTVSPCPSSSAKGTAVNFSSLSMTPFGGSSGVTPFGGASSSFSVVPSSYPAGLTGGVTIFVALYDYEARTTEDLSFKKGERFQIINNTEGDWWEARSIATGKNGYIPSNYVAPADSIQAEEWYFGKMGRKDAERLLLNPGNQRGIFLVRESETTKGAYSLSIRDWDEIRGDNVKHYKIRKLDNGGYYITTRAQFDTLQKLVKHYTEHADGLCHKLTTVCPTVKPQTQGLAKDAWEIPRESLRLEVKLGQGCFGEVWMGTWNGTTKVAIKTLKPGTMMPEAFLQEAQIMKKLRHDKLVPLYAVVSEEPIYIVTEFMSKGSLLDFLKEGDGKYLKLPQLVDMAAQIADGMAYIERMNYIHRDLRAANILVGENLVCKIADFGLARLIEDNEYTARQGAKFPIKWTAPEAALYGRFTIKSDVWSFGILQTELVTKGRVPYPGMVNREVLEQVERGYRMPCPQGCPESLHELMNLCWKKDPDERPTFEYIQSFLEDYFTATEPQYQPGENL
Chain of Serine/threonine-protein kinase 32B (Homo sapiens) (Q9NY57 whole entry): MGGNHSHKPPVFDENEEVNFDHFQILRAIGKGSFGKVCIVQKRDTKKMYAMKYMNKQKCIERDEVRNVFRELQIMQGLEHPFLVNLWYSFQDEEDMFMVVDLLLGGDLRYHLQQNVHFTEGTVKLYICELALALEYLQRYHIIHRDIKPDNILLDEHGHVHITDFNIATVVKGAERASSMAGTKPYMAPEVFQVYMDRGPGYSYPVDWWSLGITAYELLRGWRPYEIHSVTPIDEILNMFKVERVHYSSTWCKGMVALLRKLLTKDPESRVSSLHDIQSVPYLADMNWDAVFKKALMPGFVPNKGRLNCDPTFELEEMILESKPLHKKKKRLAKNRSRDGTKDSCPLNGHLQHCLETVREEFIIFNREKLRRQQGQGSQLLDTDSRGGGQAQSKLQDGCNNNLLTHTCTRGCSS

For `C=CC(=O)Nc1cc(-n2c(=O)ccc3cnc4ccc(-c5ccc(NS(C)(=O)=O)cc5)cc4c32)ccc1C`, the % of control ([1]; at 1 µM) was 100% and the % of control ([1]; at 10 µM) was 100%.

In the case of `COCC(=O)NC/C=C/c1ccc2ncnc(Nc3ccc(Oc4ccc(C)nc4)c(C)c3)c2c1` [CP-724714], the % of control [2] is reported as 74%.

Molecule `Cc1ccc(-c2ccc3c(ccc4sc5c(c43)NC[C@@H](C)NC5=O)n2)cn1` has a % of inhibition [3] of 31%.

With `Cc1cc([C@@H](C)Nc2ccccc2C(=O)O)c2nc(N3CCOCC3)cc(=O)n2c1` [AZD-6482] the % of control [4] was 58%.

Work on `CC[C@@H]1[C@H](F)C(=O)N[C@@H]1COc1nccc2cc(C(N)=O)c(OC)cc12` [ZIMLOVISERTIB] yielded a % of inhibition ([5]; at 0.01 µM) of 3.3%, a % of inhibition ([5]; at 0.04 µM) of 16.7% and a % of inhibition ([5]; at 0.2 µM) of 6.9%. The % of inhibition ([5]; at 1 µM) was 25.1%, the % of inhibition ([5]; at 5 µM) was 56.2% and the % of inhibition [6] was -0.9%.

Work on `COc1cc(Nc2nc(C)cc(-c3cnn4nc(OC)ccc34)n2)cc(C(F)(F)F)c1` yielded a % of control [7] of 100%.

With `Cc1cnc(Nc2ccc(F)cc2Cl)nc1-c1c[nH]c(C(=O)N[C@H](CO)c2cccc(Cl)c2)c1` the % of inhibition [8] was 0%.
